{
  "source": "patent US20220146519A1",
  "about": "“INTEGRIN ALPHA V BETA 3 TARGETING PROBE FOR DIAGNOSING RETINOCHOROIDAL NEOVASCULAR DISEASES AND PREPARATION METHOD THEREFOR” (SEOUL NATIONAL UNIVERSITY HOSPITAL, priority 2019, published 2022)",
  "key": {"integrin αvβ3 [1]": {"system": "integrin αvβ3", "sequence (P43406 31-885 limits assumed)": "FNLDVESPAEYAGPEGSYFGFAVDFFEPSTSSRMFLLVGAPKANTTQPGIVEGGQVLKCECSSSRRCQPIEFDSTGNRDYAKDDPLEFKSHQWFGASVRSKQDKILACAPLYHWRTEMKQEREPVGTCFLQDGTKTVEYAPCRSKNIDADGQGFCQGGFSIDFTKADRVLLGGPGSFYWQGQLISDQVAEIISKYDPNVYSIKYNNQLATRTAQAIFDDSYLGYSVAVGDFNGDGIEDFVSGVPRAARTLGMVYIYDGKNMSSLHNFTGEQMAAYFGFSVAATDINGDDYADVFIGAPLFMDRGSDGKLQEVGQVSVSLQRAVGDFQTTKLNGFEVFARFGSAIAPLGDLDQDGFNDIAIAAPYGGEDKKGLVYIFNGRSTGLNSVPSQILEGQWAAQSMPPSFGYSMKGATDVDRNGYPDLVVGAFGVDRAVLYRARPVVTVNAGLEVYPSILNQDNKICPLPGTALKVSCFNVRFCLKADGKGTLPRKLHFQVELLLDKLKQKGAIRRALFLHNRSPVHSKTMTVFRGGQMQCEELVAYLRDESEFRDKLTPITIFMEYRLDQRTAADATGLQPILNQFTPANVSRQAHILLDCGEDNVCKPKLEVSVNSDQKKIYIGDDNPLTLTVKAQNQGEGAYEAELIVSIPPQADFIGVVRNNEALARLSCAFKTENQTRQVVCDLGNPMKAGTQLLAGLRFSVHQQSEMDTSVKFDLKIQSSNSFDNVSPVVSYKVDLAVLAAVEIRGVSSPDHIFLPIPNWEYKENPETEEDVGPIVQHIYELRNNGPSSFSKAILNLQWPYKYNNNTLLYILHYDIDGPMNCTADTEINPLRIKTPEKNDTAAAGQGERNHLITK", "sequence (P43406 887-1044 partner limits assumed)": "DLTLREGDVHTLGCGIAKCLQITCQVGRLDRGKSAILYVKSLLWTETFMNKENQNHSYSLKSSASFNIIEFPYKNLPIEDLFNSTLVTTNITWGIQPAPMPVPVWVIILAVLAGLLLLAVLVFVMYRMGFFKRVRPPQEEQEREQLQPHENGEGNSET", "sequence (O54890 26-787, further chain)": "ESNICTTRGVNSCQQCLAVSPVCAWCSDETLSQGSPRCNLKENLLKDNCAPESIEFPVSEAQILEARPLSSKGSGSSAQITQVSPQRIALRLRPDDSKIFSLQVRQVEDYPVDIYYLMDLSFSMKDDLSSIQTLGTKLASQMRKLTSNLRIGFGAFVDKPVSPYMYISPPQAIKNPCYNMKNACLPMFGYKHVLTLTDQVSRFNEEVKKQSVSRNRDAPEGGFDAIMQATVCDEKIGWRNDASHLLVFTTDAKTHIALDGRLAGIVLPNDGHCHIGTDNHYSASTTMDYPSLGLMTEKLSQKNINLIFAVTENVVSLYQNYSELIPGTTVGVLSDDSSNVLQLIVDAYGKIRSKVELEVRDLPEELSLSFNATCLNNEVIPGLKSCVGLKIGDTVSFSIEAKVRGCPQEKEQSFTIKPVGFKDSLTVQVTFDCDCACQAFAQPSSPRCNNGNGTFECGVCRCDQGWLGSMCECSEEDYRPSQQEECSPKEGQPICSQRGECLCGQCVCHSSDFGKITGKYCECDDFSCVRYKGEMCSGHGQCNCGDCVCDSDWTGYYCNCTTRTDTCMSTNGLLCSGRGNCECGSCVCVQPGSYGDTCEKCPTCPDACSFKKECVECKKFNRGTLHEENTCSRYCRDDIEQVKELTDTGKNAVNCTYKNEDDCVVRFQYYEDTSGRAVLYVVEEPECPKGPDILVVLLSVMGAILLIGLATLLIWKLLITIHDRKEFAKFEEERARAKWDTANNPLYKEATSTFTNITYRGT", "test": "Fluorescence staining of vessels in retinal and choroidal flatmounts using FITC-labeled RGD peptide", "parameters": "species or system mouse", "settings": "for staining of choroidal neovascularization lesions (laser-treated areas): ex vivo choroidal flatmount, 7 days after laser-induced choroidal neovascularization, C57BL/6 mice", "description": "After intravenous anesthesia using a 1:1 mixture of 100 mg/mL ketamine and 20 mg/mL xylazine and pupillary dilatation using 5.0% phenylephrine and 0.8% tropicamide, C57BL/6 mice were placed on the Mayo stand (Coherent PC-920 Argon Ion Laser System; Coherent Medical Laser, Santa Clara, Calif.). Choroidal neovascularization was induced using 512-nm argon laser photocoagulation, with 100 urn of spot size and 100 mW of power for 0.1 s in the right eye. Five lesions of about 2-3 disc diameters were generated from the optic disc. The formation of bubbles upon laser delivery can be considered sufficient damage to induce rupture of Bruch's membrane and choroidal neovascularization. When subretinal hemorrhage occurred after the laser treatment, the mice were excluded from the experiment.\nTen eyes were prepared as choroidal flatmounts. For the flatmounts, mice were anesthetized at days 7 or 14 and eyes were enucleated and fixed with 4% paraformaldehyde for 30 min at 4° C. The anterior segment and retina were removed from the eyecup, and four radial incisions were made. The remaining retinal pigment epithelium (RPE)-choroid-sclera complex was flatmounted and coverslipped. Flatmounts were examined with a scanning laser confocal microscope (LSM710; Carl Zeiss, Oberkochen, Germany). […]\nFluorescence staining with FITC-D-[c(RGDfK)]^2 was performed as follows: • (1) the retinal and choroidal flatmounts were washed with PBS and incubated with FITC-D-[c(RGDfK)]2 for 30 minutes; • (2) the slides were washed with PBS several times, counterstained with 4′,6-diamidino-2-phenylindole (DAPI), and mounted with ProLong Gold anti-fade reagent (Life Technologies, Carlsbad, Calif., USA); • (3) and after staining, the flatmounts were mounted with the vitreous side up on glass slides and visualized on a confocal microscope (LSM710; Carl Zeiss, Oberkochen, Germany)."}, "integrin αvβ3 [2]": {"system": "integrin αvβ3", "test": "Specificity of FITC-D-[c(RGDfK)]2 staining evaluated with excess cRGD peptides", "format": "binding, mouse", "settings": "10 nM probe; 2-hour incubation with 200 nM (20-fold) cRGD before staining; choroidal flatmount", "description": "Additionally, the specificity of FITC-D-[c(RGDfK)]2 staining was evaluated by using an excess of cRGD peptides. For this experiment, one mouse with identical laser-induced choroidal neovascularization in both eyes was sacrificed. One eye of the mouse was stained with the staining method described above using 10 nM of FITCD-[c(RGDfK)]2. The other eye was stained with the staining method described above plus a 2-hour incubation with excess cRGD peptides (for example, 20-fold molar concentration of the FITC-conjugated cRGD dimer, i.e., 200 nM) prior to the fluorescence staining. In this staining, the present inventors used an integrin αvβ3 antibody to investigate if the staining with the integrin αvβ3 antibody co-localized with that of the FITC-conjugated cRGD dimer."}},
  "note": "“Also recorded” adds a separate entry of the source.",
  "data": [
    {"substance": "FITC-D-[c(RGDfK)]2 [FITC-labeled cyclic RGD peptide]", "values": [
      {"measurement": "staining of choroidal neovascularization lesions (laser-treated areas)", "setting": "integrin αvβ3 [1]", "result": "intense immunofluorescence staining; also recorded: allowed the visualization of choroidal neovascularization at laser-treated areas"},
      {"measurement": "staining of choroidal neovascularization lesions (laser-treated areas)", "setting": "integrin αvβ3 [1]; listed as FITC-labeled RGD peptide", "result": "laser-treated lesion stained with FITC-labeled RGD peptide corresponded to that stained with lectin"},
      {"measurement": "staining of normal vessels in the retina", "setting": "integrin αvβ3 [1]; ex vivo untreated retina flatmount, lectin-positive normal vessels", "result": "barely stained"},
      {"measurement": "fluorescence of probe after pre-incubation with excess cRGD", "setting": "integrin αvβ3 [2]", "result": "remarkably reduced"}
    ]}
  ]
}
